The values below come from US4218460A, “Nitroimidazoles” (BASF Aktiengesellschaft, priority 1978, dated 1980).

≈ marks a conversion by molar mass, not a printed value.

One data set has as its system Trichomonas. Nature of the data set: Trichomonas vaginal infection of mice. The note with it: po, read-out: cure; for responders at 25 mg/kg: 5×25 mg/kg perorally; for responders at 50 mg/kg: 5×50 mg/kg perorally. Type of data set: in vivo. On the procedure:
5. Trichomonas vaginal--infection of mice Various dosages were investigated. The curing of the infection was determined microscopically and in a culture.

For another data set, the system named is Trichomonas vaginalis. Nature of the data set: Minimum inhibition concentration on Trichomonas vaginalis, in vitro quantitative tube-dilution test. Type of data set: cell-based. Particulars: for Relative effectiveness Metronidazol = 1.0: MIC on Trichomonas vaginalis relative to Metronidazol = 1.0; for MIC: Trichomonas vaginalis, in vitro tube-dilution test. On the procedure:
Minimum inhibition concentrations (MIC) on Trichomonas
^1 The tests were carried out in vitro using the quantitative
tubedilutiom test described by P. Klein, Bakteriologische Geundlagen der
chemotherapeutischen Laboratoriumspraxis, SpringerVerlag
BerlinCoettingen-Heidelberg, 1957.

Another data set relates to Trypanosoma brucei. Nature of the data set: Trypanosoma brucei infection of the mouse. The note with it: for recidivation: 25 days post-observation. The class given is in vivo, mouse (NMRI strains). As to the method: (§1) The action against infections caused by Trypanosomas and Entamoeba histolytica can be illustrated on the mouse (NMRI strains) using methods described in Handbuch fur experimentelle Pharmakologie, Erganzungswerk 16, Erzeugung von Krankheitszustanden durch das Experiment, Part 9, pages 150 to 292, Springer-Verlag, Berlin-Goettingen-Heidelberg, 1964.
1. Trypanosoma brucei--infections of the mouse
(§2) Various dosages were investigated. The curing of the infection was determined microscopically and in a culture. There was also post-observation for 25 days after treatment was discontinued in order to establish whether there was any recidivation

For the next data set, the system named is Entamoeba histolytica. Nature of the data set: Entamoeba histolytica in vitro tube-dilution test. The class given is cell-based. The note with it: Entamoeba histolytica PN and Q strains, read-out: minimum inhibition concentration. On the procedure:
4. Entamoeba histolytica (tube-dilution test)
The PN and Q strains were tested.
The minimum inhibition concentrations were as follows:
The experiments were carried out in vitro using the quantitative tube-dilution test described by P. Klein, Bakteriologische Grundlagen der chemotherapeutischen Laboratoriumspraxis, Springer-Verlag, Berlin-Goettingen-Heidelberg, 1957.

Another data set deals with Trypanosoma gambiense. Nature of the data set: Trypanosoma gambiense infection of mouse. Type of data set: in vivo, mouse (NMRI strains). As to the method: as §1, §2
2. Trypanosoma gambiense--infection of mouse
(§3) Same method as in the case of Trypanosoma brucei

A short description of data set [1]: LD 50 toxicity on mice, oral. Particulars: mouse, in vivo, NMRI strain, a week's observation period.
The subject of another data set is Trypanosoma congolense. Kind of data set: Trypanosoma congolense infection of mouse. Type of data set: in vivo, mouse (NMRI strains). On the procedure: as §1, §2
3. Trypanosoma congolense--infection of mouse
as §3

One may read the LD50 as the dose at which mortality reaches 50%. Read a low LD50 as a more toxic substance. Turning to `Cc1nnc(C=Cc2ncc([N+](=O)[O-])n2C)s1` [Example 1, 2-methyl-5-[2-(1-methyl-5-nitroimidazol-2-yl)-vinyl]-1,3,4-thiadiazole], the responders at 25 mg/kg with Trichomonas was 100%. Moreover, in the data set on Trichomonas vaginalis, the “Relative effectiveness Metronidazol = 1.0” value was determined as 5.0. Further, the MIC in the data set with Trichomonas vaginalis is 0.02 µg/mL (≈ 0.0796 µM); in the data set with Entamoeba histolytica, under 0.01 µg/mL. For the same compound, the acute action in the data set on Trypanosoma brucei (11×50 mg/kg perorally), in the data set with Trypanosoma gambiense (11×50 mg/kg perorally) and in the data set on Trypanosoma congolense (11×50 mg/kg perorally) was 100% throughout. Moreover, the recidivation with Trypanosoma brucei (11×50 mg/kg perorally) is on record as 70%; in the data set on Trypanosoma gambiense (11×50 mg/kg perorally), 80%. The compound also showed an LD50 at 168 h in data set [1] of over 1500 mg/kg. In the data set with Trypanosoma congolense (11×50 mg/kg perorally), the “no recidivation (so in the source)” value came to 20%.

For `Cn1c([N+](=O)[O-])cnc1C=Cc1nnc(-c2ccccc2)s1` [Example 2, 2-phenyl-5-[2-(1-methyl-5-nitroimidazol-2-yl)-vinyl]-1,3,4-thiadiazole], in the data set on Trichomonas, the responders at 50 mg/kg came to 10%. In the data set on Trichomonas vaginalis, the “Relative effectiveness Metronidazol = 1.0” value was 10.0. For the same compound, the MIC in the data set on Trichomonas vaginalis was determined as 0.01 µg/mL (≈ 0.0319 µM); with Entamoeba histolytica, 0.1 µg/mL (≈ 0.319 µM). In addition, the acute action entry in the data set with Trypanosoma brucei (11×50 mg/kg perorally), in the data set on Trypanosoma gambiense (11×50 mg/kg perorally) and in the data set with Trypanosoma congolense (11×50 mg/kg perorally) was “no action” each time.

Consider `Cn1c([N+](=O)[O-])cnc1C=Cc1nnc(-c2ccncc2)s1` [Example 5, 2-(4-pyridyl)-5-[2-(1-methyl-5-nitroimidazol-2-yl)-vinyl]-1,3,4-thiadiazole], for which the responders at 25 mg/kg in the data set with Trichomonas amounted to 100%. In the data set with Trichomonas vaginalis, the “Relative effectiveness Metronidazol = 1.0” value is 10.0. Besides, the MIC was 0.01 µg/mL (≈ 0.0318 µM) against Trichomonas vaginalis and under 0.01 µg/mL in the data set with Entamoeba histolytica. Moreover, the acute action result with Trypanosoma brucei (11×50 mg/kg perorally), with Trypanosoma gambiense (11×50 mg/kg perorally) and with Trypanosoma congolense (11×50 mg/kg perorally) was “no action” each time.

In the case of `Cn1c([N+](=O)[O-])cnc1C=Cc1nncs1` [Example 6, 2-[2-(1-methyl-5-nitroimidazol-2-yl)-vinyl]-1,3,4-thiadiazole], the responders at 50 mg/kg in the data set on Trichomonas was 50%. Besides, in the data set with Trichomonas vaginalis, the “Relative effectiveness Metronidazol = 1.0” value is listed as over 10.0. Also, the MIC against Trichomonas vaginalis and in the data set with Entamoeba histolytica was under 0.01 µg/mL in each case. Moreover, the acute action result in the data set on Trypanosoma brucei (11×50 mg/kg perorally), with Trypanosoma gambiense (11×50 mg/kg perorally) and in the data set on Trypanosoma congolense (11×50 mg/kg perorally) was “no action” each time.

`CCc1nnc(C=Cc2ncc([N+](=O)[O-])n2C)s1` [Example 7, 2-ethyl-5-[2-(1-methyl-5-nitroimidazol-2-yl)-vinyl]-1,3,4-thiadiazole]: in the data set with Trichomonas, the responders at 50 mg/kg came out at 100%. In addition, the “Relative effectiveness Metronidazol = 1.0” value with Trichomonas vaginalis is over 10.0. Also, the MIC in the data set with Trichomonas vaginalis and in the data set on Entamoeba histolytica was under 0.01 µg/mL in each case. Also, the figures for the acute action in the data set on Trypanosoma brucei (11×50 mg/kg (route not given)), with Trypanosoma gambiense (11×50 mg/kg perorally) and in the data set with Trypanosoma congolense (11×50 mg/kg perorally) were 100%, “no action” and “no action”, respectively. The compound also gave a recidivation in the data set on Trypanosoma brucei (11×50 mg/kg (route not given)) of 30%. In data set [1], this compound displayed an LD50 at 168 h of over 1500 mg/kg.

For `CCc1nnc(C(C)=Cc2ncc([N+](=O)[O-])n2C)s1` [Example 10, 2-ethyl-5-[1-methyl-2-(1-methyl-5-nitroimidazol-2-yl)-vinyl]-1,3,4-thiadiazole], the responders at 25 mg/kg in the data set with Trichomonas is 100%. In addition, in the data set with Trichomonas vaginalis, the “Relative effectiveness Metronidazol = 1.0” value was over 10.0. Further, the MIC in the data set on Trichomonas vaginalis and with Entamoeba histolytica was under 0.01 µg/mL in each case. The acute action in the data set with Trypanosoma brucei (11×50 mg/kg perorally), with Trypanosoma gambiense (11×50 mg/kg perorally) and in the data set with Trypanosoma congolense (11×50 mg/kg perorally) was 100% throughout. The values for the recidivation entry in the data set on Trypanosoma brucei (11×50 mg/kg perorally), in the data set on Trypanosoma gambiense (11×50 mg/kg perorally) and with Trypanosoma congolense (11×50 mg/kg perorally) were “no recidivation”, 60% and “no recidication”, respectively. In addition, the LD50 at 168 h in data set [1] is over 1500 mg/kg.

For the compound `Cc1ncc([N+](=O)[O-])n1CCO` [Metronidazol, reference compound], the responders at 25 mg/kg with Trichomonas was 100%. Besides, the “Relative effectiveness Metronidazol = 1.0” value with Trichomonas vaginalis is 1.0. Also, the MIC in the data set with Trichomonas vaginalis and in the data set with Entamoeba histolytica was 0.1 µg/mL (≈ 0.584 µM) in each case. The acute action result in the data set on Trypanosoma brucei (11×50 mg/kg perorally) is given as “no action”.

For `Cc1ccc(C(=O)Nc2ccc(S(=O)(=O)O)c3cc(S(=O)(=O)O)cc(S(=O)(=O)O)c23)cc1NC(=O)c1cccc(NC(=O)Nc2cccc(C(=O)Nc3cc(C(=O)Nc4ccc(S(=O)(=O)O)c5cc(S(=O)(=O)O)cc(S(=O)(=O)O)c45)ccc3C)c2)c1` [Suramin, reference compound], the acute action in the data set with Trypanosoma brucei (7×50 mg/kg intraperitoneally) is reported as 80%; in the data set with Trypanosoma gambiense (7×50 mg/kg intraperitoneally) it was 50%; in the data set with Trypanosoma congolense (7×50 mg/kg intraperitoneally), 70%. Also, the recidivation entry in the data set with Trypanosoma brucei (7×50 mg/kg intraperitoneally), in the data set with Trypanosoma gambiense (7×50 kg/mg intraperitoneally) and in the data set on Trypanosoma congolense (7×50 mg/kg intraperitoneally) was “no recidivation” in each case.

For `CCS(=O)(=O)CCn1c([N+](=O)[O-])cnc1C` [Tinidazol, reference compound], the responders at 25 mg/kg with Trichomonas was found to be 100%. Also, in the data set with Trichomonas vaginalis, the “Relative effectiveness Metronidazol = 1.0” value amounted to 1.0 and the MIC was determined as 0.1 µg/mL (≈ 0.404 µM). The action entry with Trypanosoma brucei (22×50 mg/kg perorally) is “no action”.
